According to US6911474B2, “Methods, compounds, and compositions for reducing body fat and modulating fatty acid metabolism” (The Regents of the University of California, priority 2001, dated 2005):
Several values for one entry are separate records, joined by “and”; a condition that tells them apart may be missing. Equal entries are not always repeated.

Tests used:
[1] = Plasma hormone levels by radioimmunoassay (HPA axis); assay type: in vivo, rat; details: Table 3
Protocol: Blood chemistry. Plasma β-hydroxybutyrate and glycerol were measured using commercial kits (Sigrna, St. Louis, Mo.). Plasma prolactin, corticosterone and luteinizing hormone were quantified by radioimmunoassay (Navarro et al., Neuroreport, 8:491-496 (1997)).

Acute water intake = assay type: in vivo, rat; details: 5 or 20 mg per kg; FIG. 4d
Protocol: FIG. 4. Oleoylethanolamide/[…] selectively suppresses food intake: […] Vehicle alone (70% DMSO in saline, 1 ml per kg, i.p.) had no significant effect on acute food intake; (b) time course of the hypophagic effects of oleoylethanolamide (20 mg per kg, i.p.) (squares) or vehicle (lozenges) on food intake. […] Empty bars, water intake; filled bars, saccharin intake. Effects of vehicle (V) or oleoylethanolamide (5 or 20 mg per kg) on: (d) water intake (expressed in ml per 4 h); (e) body temperature; (f) latency to jump in the hot plate analgesia test; (g) percent time spent in open arms in the elevated plus maze anxiety test; (h) number of crossings in the open field activity test; (i) number of operant responses for food. Asterisk, P<0.05, n=8-12 per group.

[2] = Elevated plus maze anxiety test; assay type: in vivo, rat; details: FIG. 4g
Protocol: Other behavioral assays. The elevated plus maze test was conducted as described (Navarro et al., Neuroreport, 8:491-496 (1997)) after the administration of vehicle or OEA (20 mg per kg, i.p.). Horizontal activity in an open field (Beltramo et al., J. Neurosci., 20:3401-3407 (2000)) and pain threshold in the hot plate test (55° C.) (Beltramo et al., Science, 277:1094-1097 (1997)) were measured 15 min after injection of vehicle or OEA (20 mg per kg). Rectal temperature was measured using a digital thermometer (Martin-Calderón et al., Eur. J. Pharmacol., 344:77-86. (1998)).

[3] = Operant responses for food; assay type: in vivo, rat; details: at a dose substantially higher than those required to produce hypophagia; FIG. 4i
From the text: Operant responses for food. Rats were trained to lever press for food on a fixed ratio 1 (FR1) schedule of reinforcement, while food-restricted at 20 g of chow per rat per day (Rodriguez de Fonseca et al., Acta Pharmacol. Sin., 20:1109-1114 (1999)). Once stable responding was achieved, the animals were trained to acquire an FR5, time out 2-min schedule of food reinforcement and kept in limited access to food. When a stable baseline was obtained, the animals were used to test the effects of vehicle or OEA (1, 5 or 20 mg per kg) administered 15 min before lever presentation. Test duration was 60 min.

Hepatocyte = assay: [14C]oleate oxidation to ketone bodies in hepatocytes; assay type: cell-based, rat
Protocol: Compounds can also be assayed for their effect on fatty acid metabolism. The effect of the candidate compound on fatty acid metabolism can be measured by measurements of fatty acid oxidation in primary cultures of liver cells. Hepatocytes may be used to determine the rate of oleate oxidation to ketone bodies and carbon dioxide. Such cells can be isolated from adult rat liver by enzymatic digestion as described by Beynen et al. in Diabetes 28:828 (1979). Cells typically are cultured in suspension and incubated in Krebs-Henseleit's bicarbonate medium supplemented with bovine serum albumin and glucose as described by Guzmán & Geelen, Biochem. J. 287:487(1992). The protein concentration of the cultured cells can be determined and cells seeded in 2 ml media so that 4-6 mg protein per ml is present in the reaction mixture. Cells can be incubated for 10 minutes at 37° C. with [^14C]-oleic acid (Arnersham), in the presence or absence of 10 μM OEA, reactions may be stopped with 200 μl 2M perchloric acid and acid-soluble products extracted with chloroform/methanol/water (5:1:1, vol:vol:vol). The aqueous phase can be removed and washed twice more. Protein concentration can be determined using a Lowry assay. The rate of oleate conversion into ketone bodies may be expressed as rnmol of oleate oxidized per hour per mg protein and may be determined using liquid scintillation counting. […]

Soleus muscle = assay: [14C]oleate oxidation to CO2 in soleus muscle; assay type: cell-based, rat
Cardiomyocyte = assay: [14C]oleate oxidation to CO2 in cardiomyocytes; assay type: cell-based, rat

With `CCCCCCCC/C=C\CCCCCCCC(=O)NCCO` [OEA, Oleoylethanolamide] as the molecule, how does the “activity of the hypothalamus-pituitary-adrenal (HPA) axis” value [1] read?
The value was “did not alter”.

What about the water intake (Acute water intake) of the same molecule?
Its water intake is “did not alter”.

And the anxiety-like symptoms [2]?
Its anxiety-like symptoms is “did not produce anxiety-like symptoms”.

And the “operant responses for food” value [3]?
Its value is “reduced”.

What about the “Stimulatory effect of 10 μM OEA (%) on [14C]oleate oxidation to ketone bodies” value (Hepatocyte; Hepatocyte, 10 μM, 10 min incubation) of the same molecule?
The value was 21+−6% and 21 ± 6%.

What about the “fatty acid oxidation in words” value (Hepatocyte; primary cultures of liver cells) of the same molecule?
Its value is “significantly stimulates”.

And the “Stimulatory effect of 10 μM OEA (%) on [14C]oleate oxidation to CO2” value (Soleus muscle; Soleus muscle, 10 μM, 30 min incubation)?
Its value is 36 ± 10%.

And the “fatty acid oxidation in words” value (Soleus muscle; primary cultures of skeletal muscle (soleus))?
The value was “significantly stimulates”.

And the “Stimulatory effect of 10 μM OEA (%) on [14C]oleate oxidation to CO2” value (Cardiomyocyte; Cardiomyocyte, 10 μM, 30 min incubation)?
The value was 37 ± 9%.

What about the “fatty acid oxidation in words” value (Cardiomyocyte; primary cultures of heart cells) of the same molecule?
The value was “significantly stimulates”.
